Where two headings read alike, the source gives them in different places.
What was measured:
[1] = test system: Molt 4 (T lymphoid cell line); assay: Growth inhibition of T-lymphoid cell line Molt-4 by CA; type: cell-based
Text: Culture of T-Lymphoid cell line Molt-4. This cell line was obtained from American Type culture collection (ATCC), VA, USA and grown in vitro as described for the cell line K562.

Normal PBMC = assay: Growth inhibition of normal individuals' PBMC by CA/PCQ; type: cell-based, human; settings: Homo sapiens; for inhibition at 50 µg/mL: 50.0 μg/ml; for inhibition at 100 µg/mL: 100.0 μg/ml
Description: Preparation of peripheral blood mononuclear cells (PBMC) from normal individuals. Whole blood was collected and mononuclear cells were separated by Ficoll/Hypaque density gradient centrifugation.

[2] = test system: Promonocytic cell line (U937); assay: Incubation of CD33+ promonocytic cell line U937 with CA/PCQ, viable cell count; type: cell-based; settings: for inhibition at 25 µg/mL: U937, 25.0 μg/ml; for inhibition at 50 µg/mL: U937, 50.0 μg/ml; for inhibition at 100 µg/mL: U937, 100.0 μg/ml
Description: Culture of Promonocytic cell line U937. […] This cell line is CD33^+. Incubation of CD33^+ cell line U937 with CA. […] Cells were then washed and counted for viability.

[3] = test system: CML patient's leukemic cells; assay: Analysis of cell cycle progression and apoptosis by flow cytometry; type: cell-based, human
Description: Analysis of cell cycle progression and apoptosis by Flow cytometry PBMC of a CML patient was cultured in RPMI-1640 medium supplemented with 10% […] fetal bovine serum in the presence or absence of CA (100.0 μg/ml) for 48 hr. at 37° C. in 5% CO2. Cells were fixed with 40% ethanol treated with 500 μg/ml Rnase A, and then with 69 μM propidium iodide for analysis of DNA content by Flow Cytometry as described (Mitra et al., Molecular Medicine, 6:527-541, 2000).

CML patient's PBMC = assay: Incubation of CML patient's PBMC (leukemic cells) with CA/PCQ, viable cell count; type: cell-based, human
Description: Whole blood (10 ml each) was drawn from previously diagnosed myeloid leukemic patients, one patient was diagnosed as AML and the other one was diagnosed as CML. Mononuclear cells were separated by Ficoll/hypaque density gradient centrifugation. […] Cells were then washed and counted for viability.

[4] = 24 h, Normal PBMC, 1 day, 1 × 10^5 cells per ml per well, read-out: Percentage inhibition of Cell Growth
[5] = 48 h, Normal PBMC, 2 days, 1 × 10^5 cells per ml per well, read-out: Percentage inhibition of Cell Growth
[6] = 72 h, Normal PBMC, 3 days, 1 × 10^5 cells per ml per well, read-out: Percentage inhibition of Cell Growth
[7] = Homo sapiens, U-937, 24 h, 1 day, 1 × 10^5 cells per ml per well, read-out: Percentage inhibition of Cell Growth
[8] = Homo sapiens, U-937, 48 h, 2 days, 1 × 10^5 cells per ml per well, read-out: Percentage inhibition of Cell Growth
[9] = Homo sapiens, U-937, 72 h, 3 days, 1 × 10^5 cells per ml per well, read-out: Percentage inhibition of Cell Growth
[10] = Homo sapiens, U-937, 72 h, 3 days, 2×10^5 cells per ml per well, read-out: % Inhibition of cell growth (After 3 days of incubation)
[11] = CML patient's leukemic cells, CA 100.0 μg/ml, 2 days

## O=C(/C=C/c1ccc(O)c(O)c1)O[C@@H]1C[C@](O)(C(=O)O)C[C@@H](O)[C@H]1O (single isomer, unassigned) [CA, chlorogenic acid or 3-Caffeoyl quinic acid]
[1]
  destruction of cells (in words): requires higher dose
Normal PBMC; [4]
  inhibition at 50 µg/mL: 6.66%
  inhibition at 100 µg/mL: 6.66%
Normal PBMC; [5]
  inhibition at 50 µg/mL: 10.3%
  inhibition at 100 µg/mL: 17.2%
Normal PBMC; [6]
  inhibition at 50 µg/mL: 15.2%
  inhibition at 100 µg/mL: 19.5%
Normal PBMC; 72 h, Normal individual's PBMC, 25.0 μg/ml, 3 days, 2×10^5 cells per ml per well, read-out: % Inhibition of cell growth (After 3 days of incubation)
  inhibition at 25 µg/mL: 1.03%
Normal PBMC; 72 h, Normal individual's PBMC, 3 days, 2×10^5 cells per ml per well, read-out: % Inhibition of cell growth (After 3 days of incubation)
  inhibition at 50 µg/mL: 1.03%
[2]; Homo sapiens, U-937, 24 h, U937, 10.0 μg/ml, 1 day, 1 × 10^5 cells per ml per well, read-out: Percentage inhibition of Cell Growth
  inhibition at 10 µg/mL: 8.33%
[2]; [7]
  inhibition at 25 µg/mL: 16.7%
  inhibition at 50 µg/mL: 25%
  inhibition at 100 µg/mL: 45.8%
[2]; Homo sapiens, U-937, 48 h, U937, 10.0 μg/ml, 2 days, 1 × 10^5 cells per ml per well, read-out: Percentage inhibition of Cell Growth
  inhibition at 10 µg/mL: 44%
[2]; [8]
  inhibition at 25 µg/mL: 52%
  inhibition at 50 µg/mL: 64%
  inhibition at 100 µg/mL: 96%
[2]; Homo sapiens, U-937, 72 h, U937, 10.0 μg/ml, 3 days, 1 × 10^5 cells per ml per well, read-out: Percentage inhibition of Cell Growth
  inhibition at 10 µg/mL: 57.1%
[2]; [9]
  inhibition at 25 µg/mL: 71.4%
  inhibition at 50 µg/mL: 89.3%
  inhibition at 100 µg/mL: 100%
[2]; [10]
  inhibition at 25 µg/mL: 16.7%
  inhibition at 50 µg/mL: 25%
[2]; Homo sapiens, U-937, U937, 10 μg/ml, 48 hr, 1 × 10^5 cells/ml/well, read-out: Percent inhibition of cell growth after 48 hr of incubation
  inhibition at 10 µg/mL: 25%
[2]; Homo sapiens, U-937, U937, 15 μg/ml, 48 hr, 1 × 10^5 cells/ml/well, read-out: Percent inhibition of cell growth after 48 hr of incubation
  inhibition at 15 µg/mL: 43.7%
[2]; Homo sapiens, U-937, U937, 20 μg/ml, 48 hr, 1 × 10^5 cells/ml/well, read-out: Percent inhibition of cell growth after 48 hr of incubation
  inhibition at 20 µg/mL: 90.6%
[2]; U937
  destruction of cells (in words): destroyed
[3]; 100.0 μg/ml, two days of culture
  apoptosis by cell-cycle analysis (in words): caused apoptosis
[3]; [11]
  percentage of cells in (>2n DNA): 56.35%
  percentage of cells in G0/G1 (2n DNA): 33.13%
  percentage of cells in Sub G0/G1 (apoptotic 2n DNA): 10.64%
CML patient's PBMC; CML leukemic cells, 2×10^6/ml/well, 25 μg/ml of CA
  growth inhibition of leukemic cell lines: up to 2.38
CML patient's PBMC; CML patient's leukemic cells
  destruction of cells (in words): destroyed
CML patient's PBMC; Homo sapiens, 24 h, CML patient's PBMC, 50.0 μg/ml, 1 day, 1 × 10^5 cells per ml per well, read-out: Percentage inhibition of Cell Growth
  inhibition at 50 µg/mL: 4.76%
CML patient's PBMC; Homo sapiens, 24 h, CML patient's PBMC, 100.0 μg/ml, 1 day, 1 × 10^5 cells per ml per well, read-out: Percentage inhibition of Cell Growth
  inhibition at 100 µg/mL: 9.52%

— patent publication US20030229140A1, “Herbal molecule as potential anti-leukemic drug” (priority 2002, published 2003)
